We go through eight molecules from patent publication US5011850A, “Substituted diazolylalkyl-carbinols, a process for their preparation and their use as antimycotic agents” (Bayer Aktiengesellschaft, priority 1983, dated 1991).

≈ marks a conversion by molar mass, not a printed value.

In one test the test system is Candida albicans. Nature of the test: Antimycotic in vitro activity, series dilution test. It is filed as cell-based. Conditions: meat extract/glucose broth, 5×10^4 germs/ml, 20° C., 24 to 96 hours. As to the method:
(§1) The in vitro tests were carried out in a series dilution test with germ inocula of on average 5×10^4 germs/ml of substrate. The nutrient medium used was (b) for yeasts: meat extract/glucose broth. The incubation temperature was 20° C. and the duration of incubation was 24 to 96 hours in the case of yeasts and 96 hours in the case of dermatophytes and moulds.

In a further test the test system is Torulopsis glabrata. Described as above. It is filed as cell-based. As to conditions: Nakaseomyces glabratus; meat extract/glucose broth; 5×10^4 germs/ml; 20° C.; 24 to 96 hours. As to the method:
as §1

In a further test the test system is Candida. Description: Antimycotic in vivo activity (oral) in candidosis of mice. The arrangement: species or system mice (SPF-CF1). As to conditions: 10-50 mg/kg one hour before and seven hours after infection, result in words. As to the method: Mice of the SPF-CF1 type were infested intravenously with 1-2×10^6 logarthmically growing Candida cells, which were suspended in physiological saline solution. The animals were treated with, in each case, 10-50 mg/kg of body weight of the products one hour before and seven hours after the infection.

For test [1], the system named is dermatophytes, moulds and yeasts. Description: Antimycotic in vitro activity, series dilution test (overall action spectrum). It is filed as cell-based. Conditions: result in words. As to the method:
The in vitro tests were carried out in a series dilution test with germ inocula of on average 5×10^4 germs/ml of substrate. The nutrient medium used was (a) for dermatophytes and moulds: Sabourand's milieu d'epreuve, and (b) for yeasts: meat extract/glucose broth. The incubation temperature was 20° C. and the duration of incubation was 24 to 96 hours in the case of yeasts and 96 hours in the case of dermatophytes and moulds.

The subject of the next test is Aspergillus fumigatus. Description: Antimycotic in vitro activity, series dilution test. It is filed as cell-based. Conditions: Sabourand's milieu d'epreuve, 5×10^4 germs/ml, 20° C., 96 hours. As to the method: (§2) The in vitro tests were carried out in a series dilution test with germ inocula of on average 5×10^4 germs/ml of substrate. The nutrient medium used was (a) for dermatophytes and moulds: Sabourand's milieu d'epreuve, […] The incubation temperature was 20° C. and the duration of incubation was 24 to 96 hours in the case of yeasts and 96 hours in the case of dermatophytes and moulds.

The next test relates to Trichophyton mentagr. Described as above. It is filed as cell-based, Trichophyton mentagrophytes. As to conditions: Sabourand's milieu d'epreuve, 5×10^4 germs/ml, 20° C., 96 hours. As to the method: as §2

With `CC(C)(n1cncn1)C(O)(Cn1cncn1)c1ccc(F)cc1` (stereo not drawn) [Example 3], the MIC against Candida albicans is 16 µg/mL (≈ 50.6 µM); in the test on Torulopsis glabrata it was 64 µg/mL (≈ 202 µM); with Aspergillus fumigatus, greater than 64 µg/mL; against Trichophyton mentagr., 16 µg/mL (≈ 50.6 µM). For the same molecule, the “antimycotic action in candidosis of mice (in words)” value (from here on “antimycotic action in candidosis”) with Candida is listed as “good antimycotic action”. Further, the “antimycotic action spectrum in vitro” value in test [1] is recorded as “good antimycotic action spectrum”.

On to `CC(C)(n1cncn1)C(O)(Cn1ccnc1)c1ccc(Oc2ccc(Cl)cc2)cc1` (stereo not drawn) [Example 8], for which the MIC in the test with Candida albicans came out at 4 µg/mL (≈ 9.44 µM); in the test with Torulopsis glabrata, 32 µg/mL (≈ 75.5 µM); in the test with Aspergillus fumigatus, 64 µg/mL (≈ 151 µM); with Trichophyton mentagr. it was 8 µg/mL (≈ 18.9 µM). The “antimycotic action spectrum in vitro” value in test [1] is reported as “good antimycotic action spectrum”.

With `CC(C)(n1cncn1)C(O)(Cn1cncn1)c1ccc(Oc2ccc(Cl)cc2)cc1` (stereo not drawn) [Example 5], the MIC in the test with Candida albicans is 2 µg/mL (≈ 4.71 µM); in the test on Torulopsis glabrata it was 32 µg/mL (≈ 75.3 µM); in the test with Aspergillus fumigatus, greater than 64 µg/mL; in the test with Trichophyton mentagr., no more than 1 µg/mL. In addition, the “antimycotic action in candidosis” value in the test on Candida is “good antimycotic action”. Also, the “antimycotic action spectrum in vitro” value in test [1] is “good antimycotic action spectrum”.

Turning to `CC(C)(n1cncn1)C(O)(Cn1ccnc1)c1ccc(-c2ccc(Cl)cc2)cc1` (stereo not drawn) [Example 9], the MIC with Candida albicans came to 8 µg/mL (≈ 19.6 µM); against Torulopsis glabrata, 8 µg/mL (≈ 19.6 µM); against Aspergillus fumigatus it was 32 µg/mL (≈ 78.4 µM); against Trichophyton mentagr. it was 4 µg/mL (≈ 9.81 µM). Moreover, the “antimycotic action spectrum in vitro” value in test [1] was “good antimycotic action spectrum”.

For `CC(C)(n1cncn1)C(O)(Cn1cncn1)c1ccc(Cl)cc1` (stereo not drawn) [Example 1, 2-(4-chlorophenyl)-1,3-di-(1,2,4-triazol-1-yl)-3-methyl-2-butanol], the “antimycotic action in candidosis” value in the test on Candida was “good antimycotic action”.

For the molecule `CC(C)(n1cncn1)C(O)(Cn1cncn1)c1ccc(-c2ccc(Cl)cc2)cc1` (stereo not drawn) [Example 6], the MIC is 64 µg/mL (≈ 157 µM) against Candida albicans, 16 µg/mL (≈ 39.1 µM) against Aspergillus fumigatus and no more than 1 µg/mL with Trichophyton mentagr.. Also, the “antimycotic action spectrum in vitro” value in test [1] is given as “good antimycotic action spectrum”.

Take `CC(C)(n1cncn1)C(O)(Cn1cncn1)c1ccccc1` (stereo not drawn) [Example 4]: the “antimycotic action in candidosis” value in the test on Candida is reported as “good antimycotic action”.

Regarding `CC(n1cncn1)C(O)(Cn1cncn1)c1ccc(-c2ccccc2)cc1` (stereo not drawn) [Example 10], the MIC came to 2 µg/mL (≈ 5.55 µM) against Candida albicans, 64 µg/mL (≈ 178 µM) in the test with Torulopsis glabrata, 64 µg/mL (≈ 178 µM) in the test with Aspergillus fumigatus and 2 µg/mL (≈ 5.55 µM) in the test on Trichophyton mentagr.. In test [1], the “antimycotic action spectrum in vitro” value is listed as “good antimycotic action spectrum”.
